# Source: patent US20240246908A1 (ORION CORPORATION, priority 2021, published 2024)
# Tested on: YAP-TEAD
# Assay: TEAD inhibition, Hippo Pathway TEAD Reporter MCF-7 luciferase assay
# Type: cell-based
# Conditions: Homo sapiens, MCF7, 24 h, Hippo Pathway TEAD Reporter MCF-7 cells, luciferase activity after 24 h; read-out: IC50 of the test compounds on YAP-TEAD inhibition (Group)
# Experimental: TEAD inhibition was assayed using Hippo Pathway TEAD Reporter—MCF-7 cell line (BPS Bioscience, Catalog #: 60618) which contains firefly luciferase gene under the control of TEAD responsive elements. In the cell line, YAP1 remains in the nucleus inducing constitutive expression of luciferase reporter. Amount of expressed luciferase was detected using ONE-Glo Luciferase Assay System (Promega) and measuring plates with Enspire Multimode Plate Reader (PerkinElmer).
# Hippo Pathway TEAD Reporter—MCF-7 cells were plated on white/clear Poly-D-Lysine coated 384 plates (Corning #356660) at the density of 8500 cells/well. Next day test compounds (11 concentrations with 4 replicates) and DMSO control (0.1%) were added to the plate. After 24 h cells were lysed and luciferase activity was measured. The half maximal inhibitory concentration (IC50) of the test compounds on YAP-TEAD inhibition was determined.
row,SMILES,IC50 [nM]
1,"COc1c(F)cc(COc2cccc(F)c2)cc1NC(=O)C1CCC(=O)N1 (stereo not shown) [Compound 36, N-(3-Fluoro-5-((3-fluorophenoxy)methyl)-2-methoxyphenyl)-5-oxopyrrolidine-2-carboxamide]",50 to 300
2,"CCN1C(=O)CCC1C(=O)Nc1cc(Oc2cccc(C(F)(F)F)c2)ccc1OC (stereo not shown) [Compound 37, 1-Ethyl-N-(2-methoxy-5-(3-(trifluoromethyl)phenoxy)phenyl)-5-oxopyrrolidine-2-carboxamide]",50 to 300
3,"COc1ccc(Oc2cccc(C(F)(F)F)c2)cc1NC(=O)C1CCC(=O)N1C(=O)C1CC1 (stereo not shown) [Compound 38, 1-(Cyclopropanecarbonyl)-N-(2-methoxy-5-(3-(trifluoromethyl)phenoxy)-phenyl)-5-oxopyrrolidine-2-carboxamide]",301 to 2000
4,"COc1cc(F)c(Oc2cccc(C(F)(F)F)c2)cc1NC(=O)C1CCC(=O)N1C(C)=O (stereo not shown) [Compound 39, 1-Acetyl-N-(4-fluoro-2-methoxy-5-(3-(trifluoromethyl)phenoxy)phenyl)-5-oxopyrrolidine-2-carboxamide]",50 to 300
5,"CC(=O)N1C(=O)CCC1C(=O)Nc1cc(Oc2cccc(C(F)(F)F)c2)ccc1F (stereo not shown) [Compound 40, 1-Acetyl-N-(2-fluoro-5-(3-(trifluoromethyl)phenoxy)phenyl)-5-oxopyrrolidine-2-carboxamide]",301 to 2000
6,"CN1C(=O)CCC1C(=O)Nc1cc(Oc2cccc(C(F)(F)F)c2)ccc1F (stereo not shown) [Compound 41, N-(2-Fluoro-5-(3-(trifluoromethyl)phenoxy)phenyl)-1-methyl-5-oxopyrrolidine-2-carboxamide]",301 to 2000
7,"COc1ccc(Oc2ccc(F)cc2F)cc1NC(=O)C1CCC(=O)N1 (stereo not shown) [Compound 42, N-(5-(2,4-Difluorophenoxy)-2-methoxyphenyl)-5-oxopyrrolidine-2-carboxamide]",50 to 300
8,"COc1ccc(Oc2ccc(F)cc2F)cc1NC(=O)C1CCC(=O)N1C (stereo not shown) [Compound 43, N-(5-(2,4-Difluorophenoxy)-2-methoxyphenyl)-1-methyl-5-oxopyrrolidine-2-carboxamide]",50 to 300
9,"COc1ccc(Oc2ccc(F)cc2F)cc1NC(=O)C1CCC(=O)N1C(C)=O (stereo not shown) [Compound 44, 1-Acetyl-N-(5-(2,4-difluorophenoxy)-2-methoxyphenyl)-5-oxopyrrolidine-2-carboxamide]",301 to 2000
10,"COc1ccc(Oc2ccc(C(F)(F)F)cc2)cc1NC(=O)C1CCC(=O)N1C(C)=O (stereo not shown) [Compound 47, 1-Acetyl-N-(2-methoxy-5-(4-(trifluoromethyl)phenoxy)phenyl)-5-oxo-pyrrolidine-2-carboxamide]",< 50
11,"COc1ccc(Oc2ccc(C(F)(F)F)cc2)cc1NC(=O)C1CCC(=O)N1C (stereo not shown) [Compound 48, N-(2-Methoxy-5-(4-(trifluoromethyl)phenoxy)phenyl)-1-methyl-5-oxopyrrolidi-ne-2-carboxamide]",< 50
12,"COc1ccc(COc2cccc(C(F)(F)F)c2)cc1NC(=O)C1CCC(=O)N1 (stereo not shown) [Compound 49, N-(2-Methoxy-5-((3-(trifluoromethyl)phenoxy)methyl)phenyl)-5-oxopyrrolidine-2-carboxamide]",50 to 300
13,"COc1ccc(COc2cccc(C(F)(F)F)c2)cc1NC(=O)C1CCC(=O)N1C(C)=O (stereo not shown) [Compound 50, 1-Acetyl-N-(2-methoxy-5-((3-(trifluoromethyl)phenoxy)methyl)phenyl)-5-oxopyrrolidine-2-carboxamide]",301 to 2000
14,"COc1ccc(OCc2cccc(C(F)(F)F)c2)cc1NC(=O)C1CCC(=O)N1C(C)=O (stereo not shown) [Compound 51, 1-Acetyl-N-(2-methoxy-5-((3-(trifluoromethyl)benzyl)oxy)phenyl)-5-oxo-pyrrolidine-2-carboxamide]",301 to 2000
15,"COc1ccc(OCc2cccc(C(F)(F)F)c2)cc1NC(=O)C1CCC(=O)N1 (stereo not shown) [Compound 52, N-(2-Methoxy-5-((3-(trifluoromethyl)benzyl)oxy)phenyl)-5-oxopyrrolidine-2-carboxamide]",50 to 300
16,"COc1ccc(OCc2cccc(C(F)(F)F)c2)cc1NC(=O)C1CCC(=O)N1C (stereo not shown) [Compound 53, N-(2-Methoxy-5-((3-(trifluoromethyl)benzyl)oxy)phenyl)-1-methyl-5-oxo-pyrrolidine-2-carboxamide]",50 to 300
17,"O=C(Nc1cc(Oc2cccc(C(F)(F)F)c2)cc2c1OCCO2)C1CCS(=O)(=O)N1 (stereo not shown) [Compound 54, N-(7-(3-(Trifluoromethyl)phenoxy)-2,3-dihydrobenzo[b][1,4]dioxin-5-yl)-isothiazolidine-3-carboxamide 1,1-dioxide]",301 to 2000
18,"O=C1CCC(C(=O)Nc2cc(Oc3cccc(C(F)(F)F)c3)cc3c2OCCO3)N1 (stereo not shown) [Compound 55, 5-Oxo-N-(7-(3-(trifluoromethyl)phenoxy)-2,3-dihydrobenzo[b][1,4]dioxin-5-yl)pyrrolidine-2-carboxamide]",50 to 300
19,"CC(=O)N1C(=O)CCC1C(=O)Nc1cc(Oc2cccc(C(F)(F)F)c2)cc2c1OCCO2 (stereo not shown) [Compound 56, 1-Acetyl-5-oxo-N-(7-(3-(trifluoromethyl)phenoxy)-2,3-dihydrobenzo[b][1,4]-dioxin-5-yl)pyrrolidine-2-carboxamide]",50 to 300
20,"O=C1CCC(C(=O)Nc2cc(COc3cccc(F)c3)cc3c2OCCO3)N1 (stereo not shown) [Compound 57, N-(7-((3-Fluorophenoxy)methyl)-2,3-dihydrobenzo[b][1,4]dioxin-5-yl)-5-oxopyrrolidine-2-carboxamide]",50 to 300
21,"CN1C(=O)CCC1C(=O)Nc1cc(COc2cccc(F)c2)cc2c1OCCO2 (stereo not shown) [Compound 58, N-(7-((3-Fluorophenoxy)methyl)-2,3-dihydrobenzo[b][1,4]dioxin-5-yl)-1-methyl-5-oxopyrrolidine-2-carboxamide]",301 to 2000
22,"COc1ccc(Oc2ccc(F)c(F)c2)cc1NC(=O)C1CCC(=O)N1 (stereo not shown) [Compound 59, N-(5-(3,4-Difluorophenoxy)-2-methoxyphenyl)-5-oxopyrrolidine-2-carboxamide]",< 50
23,"COc1ccc(Oc2ccc(F)c(F)c2)cc1NC(=O)C1CCC(=O)N1C (stereo not shown) [Compound 60, N-(5-(3,4-Difluorophenoxy)-2-methoxyphenyl)-1-methyl-5-oxopyrrolidine-2-carboxamide]",50 to 300
24,"Cc1c(Oc2cccc(C(F)(F)F)c2)cc(NC(=O)C2CCC(=O)N2)c2c1OCCO2 (stereo not shown) [Compound 61, N-(8-Methyl-7-(3-(trifluoromethyl)phenoxy)-2,3-dihydrobenzo[b][1,4]dioxin-5-yl)-5-oxopyrrolidine-2-carboxamide]",301 to 2000
25,"COc1ccc(Oc2ccc(C(F)(F)F)nc2)cc1NC(=O)C1CCC(=O)N1 (stereo not shown) [Compound 62, N-(2-Methoxy-5-((6-(trifluoromethyl)pyridin-3-yl)oxy)phenyl)-5-oxopyrrolidine-2-carboxamide]",50 to 300
26,"COc1ccc(Oc2ccc(C(F)(F)F)nc2)cc1NC(=O)C1CCC(=O)N1C (stereo not shown) [Compound 63, N-(2-Methoxy-5-((6-(trifluoromethyl)pyridin-3-yl)oxy)phenyl)-1-methyl-5-oxopyrrolidine-2-carboxamide]",50 to 300
27,"COc1ccc(/C=C/C2CCOCC2)cc1NC(=O)C1CCC(=O)N1C (stereo not shown) [Compound 64, (E)-N-(2-Methoxy-5-(2-(tetrahydro-2H-pyran-4-yl)vinyl)phenyl)-1-methyl-5-oxopyrrolidine-2-carboxamide]",301 to 2000
28,"COc1ccc(/C=C/C2CCOCC2)cc1NC(=O)C1CCC(=O)N1 (stereo not shown) [Compound 65, (E)-N-(2-Methoxy-5-(2-(tetrahydro-2H-pyran-4-yl)vinyl)phenyl)-5-oxo-pyrrolidine-2-carboxamide]",301 to 2000
